Laboratory results published in patent publication US20130274185A1, “Pharmaceutical for Pseudo-Exercise Therapy” (THE UNIVERSITY OF TOKYO, priority 2010, published 2013).

How the values were obtained:
muscle-R1KO mice [1] = assay: Treatment of muscle-R1KO mice with AICAR, resveratrol or MnTBAP; type: in vivo; settings: AICAR 500 mg per kg body weight, 2 hours
Protocol: Mitochondrial content assays were carried out as described in the following document (Cell Metab. 4, 75-87 (2006)), with slight modifications. Quantification of the mitochondrial content was conducted by using mtDNA and MitoTracker Green probe (Molecular Probes) according to the method as described in the following document (Obes. Res. 13, 574-581 (2005)). MitoTracker Green probe preferentially accumulates in mitochondria regardless of the mitochondrial membrane potential and provides an accurate assessment of mitochondrial mass. Cells were washed with PBS and after addition of 100 nM MitoTracker Green FM (Molecular Probes), incubated at 37° C. for 30 min. […] Fluorescence intensity was detected with excitation and emission wavelengths of 490 and 516 nm, respectively, and the values thus measured were corrected for total protein (mg/ml).
Oral glucose tolerance test (OGTT) and insulin tolerance test (ITT) were conducted by the method described in the following documents (Nature Med. 8, 1288-1295 (2002); Nature Med. 7, 941-946 (2001)), with some modifications. The areas of the glucose and insulin curves were calculated, respectively, by multiplying the cumulative mean height of the glucose values (1 mg/ml=1 cm) and insulin values (1 ng/ml=1 cm) by time (60 min=1 cm) (Nature Med. 13, 332-339 (2007); Nature Med. 7, 941-946 (2001)). […]

C2C12 myocytes [2] = assay: Mitochondrial content assay in C2C12 myocytes; type: cell-based, mouse; settings: C2C12; preincubation AraA 0.5 mM 1 hr or STO-609 1 μg/ml 6 hr, then 10 μg/ml adiponectin 48 hr
Protocol: (§1) The mouse C2C12 myoblasts were grown in 90% Dulbecco's modified high glucose Eagle's medium containing 10% (v/v) fetal bovine serum. When the cells reached 80% confluent, the myoblasts were induced to differentiate into myocytes by replacing the medium with a low serum differentiation medium (98% Dulbecco's modified high glucose Eagle's medium, 2.5% (v/v) horse serum). The medium was changed daily. The C2C12 cells were transfected by using Pofectamine 2000 (Invitrogen) and following the manufacturer's instructions.
Mitochondrial content assays were carried out as described in the following document (Cell Metab. 4, 75-87 (2006)), with slight modifications. Quantification of the mitochondrial content was conducted by using mtDNA and MitoTracker Green probe (Molecular Probes) according to the method as described in the following document (Obes. Res. 13, 574-581 (2005)). MitoTracker Green probe preferentially accumulates in mitochondria regardless of the mitochondrial membrane potential and provides an accurate assessment of mitochondrial mass. Cells were washed with PBS and after addition of 100 nM MitoTracker Green FM (Molecular Probes), incubated at 37° C. for 30 min. Cells were harvested by using trypsin/EDTA and resuspended in PBS. Fluorescence intensity was detected with excitation and emission wavelengths of 490 and 516 nm, respectively, and the values thus measured were corrected for total protein (mg/ml).

PGC-1α (Ppargc1a) = PGC-1α (Ppargc1a) expression in C2C12 myocytes; type: cell-based, mouse; settings: C2C12; preincubation AraA 0.5 mM 1 hr, STO-609 1 μg/ml 6 hr or EGTA 5 mM 20 min, then adiponectin 10 μg/ml 1.5 hr
Protocol: Real-time PCR was carried out according to the method described in the following documents (Nature Med. 13, 332-339 2007); Nature 423, 762-769 (2003); J. Biol. Chem. 281, 8748-8755 (2006)). Total RNA was prepared from cells or tissues by using Trizol (Invitrogen) according to the manufacturer's instructions. Quantification of mRNA was conducted using a real-time PCR method (Nature 423, 762-769 (2003)) with slight modifications. The procedures used for immunoblotting are described in the following documents (Nature Med. 7, 941-946 (2001); J. Biol. Chem. 281, 26602-26614 (2006); J. Biol. Chem. 281, 8748-8755 (2006)). The livers or muscles were freeze-clamped in liquid nitrogen in situ (Nature Med. 7, 941-946 (2001); J. Biol. Chem. 281, 26602-26614 (2006); J. Biol. Chem. 281, 8748-8755 (2006)).
as §1

AMPK = AMPK phosphorylation in C2C12 myocytes; type: cell-based, mouse; settings: C2C12; for effect on adiponectin-induced increased AMPK phosphorylation: preincubation 5 mM EGTA 20 min, 50 μM BAPTA-AM 30 min or 10 μM U73122 30 min, then adiponectin 30 μg/ml 5 min
Protocol: as §1

muscle-R1KO mice [3] = assay: Increased calcium influx experiment (Bay-K 8644 hydrogel) in muscle-R1KO mice; type: in vivo; settings: 0.25 μM Bay-K 8644
CaMKI = CaMKI phosphorylation in C2C12 myocytes; type: cell-based, mouse; settings: EGTA 5 mM
Protocol: as §1

AdipoR1 = biological target: T1, AdipoR1 (Mus musculus, UniProt Q91VH1); assay: Electrophysiological recording in Xenopus oocytes expressing AdipoR1; type: cell-based; settings: oocytes expressing AdipoR1, 5 mM EGTA
T1 construct: expressed in transfected cells; host or cells: Xenopus oocytes (stage V to VII), cRNA synthesized from linearized modified pSPUTK
T1 sequence (Q91VH1 1-375): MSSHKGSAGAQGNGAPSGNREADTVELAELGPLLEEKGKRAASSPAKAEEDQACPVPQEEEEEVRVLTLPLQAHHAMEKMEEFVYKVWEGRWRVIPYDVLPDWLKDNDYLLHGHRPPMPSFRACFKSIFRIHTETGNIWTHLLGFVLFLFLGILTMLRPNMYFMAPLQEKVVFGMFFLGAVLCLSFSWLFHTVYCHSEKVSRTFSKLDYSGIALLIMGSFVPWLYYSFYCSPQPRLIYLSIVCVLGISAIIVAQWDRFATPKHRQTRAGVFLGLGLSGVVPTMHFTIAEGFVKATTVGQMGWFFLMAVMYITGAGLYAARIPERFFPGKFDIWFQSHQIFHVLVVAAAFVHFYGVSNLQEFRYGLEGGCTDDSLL
Protocol: Stage V to VII oocytes were treated with 2 mg/ml of collagenase S-1 (Nitta gelatin) in calcium ion-free saline solution (82.5 mM NaCl, 2 mM KCl, 1 mM MgCl2, and 5 mM HEPES, pH 7.5) for 1 to 2 hr at room temperature. The resulting oocytes were then microinjected with 50 ng of cRNA for mAdipoR1. The cRNA was synthesized from linearized modified pSPUTK. The injected oocytes were incubated for 3 days at 18° C. in a bath solution (88 mM NaCl, 1 mM KCl, 0.3 mM Ca(NO3)2, 0.4 mM CaCl2, 0.8 mM MgSO4, 2.4 mM […], 15 mM HEPES, pH 7.6) supplemented with 10 μg/ml of penicillin and streptomycin.
Whole cell currents were recorded with a two-electrode voltage clamp technique. Intracellular glass electrodes were filled with 3M KCl. Signals were amplified with an OC-725C amplifier (Warner Instruments), low-pass filtered at 50 Hz, and digitized at 1 kHz. A control bath solution contained 115 mM NaCl, 2.5 mM KCl, 1.8 mM CaCl2, and 10 mM HEPES. It was titrated to pH 7.2 with NaOH. A calcium ion free solution containing 1.8 mM BaCl2 instead of CaCl2 was used. The inward current was monitored at a holding potential of −80 mV. Calcium ion activated Cl^− current was monitored by applying 500-mscc depolarizing pulses of +100 mV and +50 mV from the holding potential of −80 mV. Adiponectin was supplied to the superfusing bath solution via a silicon tube connected to computer-driven solenoid valves. Data acquisition and analysis were carried out using Digidata 1322A and pCLAMP software.

C2C12 myocytes [4] = assay: Calcium imaging in C2C12 myocytes (fura-2); type: cell-based, mouse
Protocol: C212 myocytes cultured on glass base dishes (IWAKI) were treated with 2.5 μM fura-2/AM for 30 min. Fluorescence was measured with an Aquacosmos Calcium Imaging system (Hamamatsu Photonics). Ligands were delivered through the superfusing Ringer's solution (140 mM NaCl, 5.6 mM KCl, 5 mM HEPES, 2.0 mM sodium pyruvate, 1.25 mM KH2PO4, 2.0 mM CaCl2, 2.0 mM MgCl2, 9.4 mM D-glucose (pH 7.4)). For the calcium chelating experiment, EGTA solution (140 mM NaCl, 5.6 mM KCl, 5 mM HEPES, 2.0 mM sodium pyruvate, 1.25 mM KH2PO4, 2.0 mM MgCl2, 5.0 mM EGTA-2Na, 9.4 mM D-glucose (pH 7.4) was used for the bath solution. Fura-2 fluorescence ratios were calibrated to calcium ion signals.

NC(=O)c1ncn([C@@H]2O[C@H](CO)[C@@H](O)[C@H]2O)c1N [AICAR, 5-aminoimidazole-4-carboxamide-1-β-D-libocide]
phosphorylation of AMPK in muscle (muscle-R1KO mice [1]): significantly increased

Nc1ncnc2c1ncn2[C@@H]1O[C@H](CO)[C@@H](O)[C@@H]1O [AraA, reference compound]
effect on the adiponectin-induced increase in mitochondrial biogenesis (C2C12 myocytes [2]): almost completely abolished
effect on PGC-1α expression induced by adiponectin (PGC-1α (Ppargc1a)): only tended to decrease

CC(=O)OCOC(=O)CN(CC(=O)OCOC(C)=O)c1ccccc1OCCOc1ccccc1N(CC(=O)OCOC(C)=O)CC(=O)OCOC(C)=O [BAPTA-AM, Bis-(o-aminophenoxy)ethane-N,N,N9,N9-tetra-acetic acid, tetraacetoxymethyl ester]
effect on adiponectin-induced increased AMPK phosphorylation (AMPK): partially suppressed

COC(=O)C1=C(C)NC(C)=C([N+](=O)[O-])C1c1ccccc1C(F)(F)F (centres unmarked) [Bay-K 8644]
CaMKKβ activity (phosphorylation of CaMKI) in skeletal muscle (muscle-R1KO mice [3]): increase in CaMKKβ activity

O=C(O)CN(CCOCCOCCN(CC(=O)O)CC(=O)O)CC(=O)O [EGTA, reference compound]
effect on increased CaMKI phosphorylation stimulated with adiponectin (CaMKI): almost completely abolished
effect on adiponectin-induced inward current responses (AdipoR1): almost completely abolishes
effect on calcium-ion activated Cl- current responses to adiponectin (AdipoR1): almost completely abolished
effect on phosphorylation of AMPK induced by AICAR (AMPK; 5 mM EGTA, AICAR 1 mM 1 hr): had no effect
effect on ionomycin-dependent phosphorylation of AMPK (AMPK; 5 mM EGTA, ionomycin 1 μM 5 min): almost completely abolished
effect on adiponectin-induced increased AMPK phosphorylation (AMPK): partially suppressed
effect on adiponectin-induced calcium ion response (C2C12 myocytes [4]; 5 mM EGTA): almost completely abolished
effect on ATP-induced intracellular calcium ion release (C2C12 myocytes [4]; EGTA): had no effect
effect on PGC-1α expression induced by adiponectin (PGC-1α (Ppargc1a)): effectively and almost completely abolished

O=C(O)c1ccc2c3c1cccc3c(=O)n1c3ccccc3nc21 [STO-609, reference compound]
effect on the adiponectin-induced increase in mitochondrial biogenesis (C2C12 myocytes [2]): almost completely abolished
effect on PGC-1α expression induced by adiponectin (PGC-1α (Ppargc1a)): effectively and almost completely abolished

COc1ccc2c(c1)CC[C@@H]1[C@@H]2CC[C@]2(C)[C@@H](NCCCCCCN3C(=O)C=CC3=O)CC[C@@H]12 [U73122]
effect on adiponectin-induced increased AMPK phosphorylation (AMPK): had little effect
